Patent publication US20160367623A1, “AGONISTS OF GUANYLATE CYCLASE USEFUL FOR THE TREATMENT OF GASTROINTESTINAL DISORDERS, INFLAMMATION, CANCER AND OTHER DISORDERS” (priority 2015, published 2016)
Bridge positions count the residues as written; N and C are the ends. Ends that are not written are not given here.

System: patients with chronic idiopathic constipation (CIC)
Assay: Second phase 3 CIC trial: change from baseline in stool consistency (BSFS)
Format: in vivo, human
[1] = 6 mg, Week 9, ITT Population-Excluding Duplicate Patients
[2] = 6 mg, Week 10, All Randomized (includes Duplicate Patients)
[3] = 6 mg, Week 10, ITT Population-Excluding Duplicate Patients
[4] = 6 mg, Week 11, All Randomized (includes Duplicate Patients)
[5] = 6 mg, Week 11, ITT Population-Excluding Duplicate Patients
[6] = 6 mg, Week 12, All Randomized (includes Duplicate Patients)
[7] = 6 mg, Week 12, ITT Population-Excluding Duplicate Patients
[8] = 6 mg, overall average estimate across the 12-week treatment period, All Randomized (includes Duplicate Patients)
[9] = 6 mg, overall average estimate across the 12-week treatment period, ITT Population
[10] = 6 mg, overall average estimate across the 12-week treatment period, ITT Population-Excluding Duplicate Patients

## Asn^1-Asp^2-Glu^3-Cys^4-Glu^5-Leu^6-Cys^7-Val^8-Asn^9-Val^10-Ala^11-Cys^12-Thr^13-Gly^14-Cys^15-Leu^16 (NDECELCVNVACTGCL; disulfide 4-12, 7-15) [Plecanatide, uroguanylin analogue, guanylate cyclase-C agonist; (C4:C12, C7:C15) bicycle peptide]
6 mg, Week 9, All Randomized (includes Duplicate Patients)
  Change from Baseline in Stool Consistency, LS Mean (SE): 1.54 (0.073)
6 mg, Week 9, ITT Population
  Change from Baseline in Stool Consistency, Difference from Placebo: 0.68
  Change from Baseline in Stool Consistency, LS Mean (SE): 1.57 (0.075)
  Change from Baseline in Stool Consistency, Mean (SD): 1.62 (1.507)
[1]
  Change from Baseline in Stool Consistency, Difference from Placebo: 0.68
  Change from Baseline in Stool Consistency, LS Mean (SE): 1.59 (0.075)
  Change from Baseline in Stool Consistency, Mean (SD): 1.63 (1.510)
[2]
  Change from Baseline in Stool Consistency, Difference from Placebo: 0.62
  Change from Baseline in Stool Consistency, LS Mean (SE): 1.52 (0.073)
6 mg, Week 10, ITT Population
  Change from Baseline in Stool Consistency, Difference from Placebo: 0.62
  Change from Baseline in Stool Consistency, LS Mean (SE): 1.55 (0.075)
  Change from Baseline in Stool Consistency, Mean (SD): 1.59 (1.432)
[3]
  Change from Baseline in Stool Consistency, Difference from Placebo: 0.63
  Change from Baseline in Stool Consistency, LS Mean (SE): 1.57 (0.075)
  Change from Baseline in Stool Consistency, Mean (SD): 1.60 (1.437)
[4]
  Change from Baseline in Stool Consistency, Difference from Placebo: 0.58
  Change from Baseline in Stool Consistency, LS Mean (SE): 1.50 (0.073)
6 mg, Week 11, ITT Population
  Change from Baseline in Stool Consistency, Difference from Placebo: 0.57
  Change from Baseline in Stool Consistency, LS Mean (SE): 1.53 (0.075)
  Change from Baseline in Stool Consistency, Mean (SD): 1.58 (1.499)
[5]
  Change from Baseline in Stool Consistency, Difference from Placebo: 0.59
  Change from Baseline in Stool Consistency, LS Mean (SE): 1.55 (0.076)
  Change from Baseline in Stool Consistency, Mean (SD): 1.59 (1.504)
[6]
  Change from Baseline in Stool Consistency, Difference from Placebo: 0.48
  Change from Baseline in Stool Consistency, LS Mean (SE): 1.48 (0.074)
6 mg, Week 12, ITT Population
  Change from Baseline in Stool Consistency, Difference from Placebo: 0.49
  Change from Baseline in Stool Consistency, LS Mean (SE): 1.51 (0.076)
  Change from Baseline in Stool Consistency, Mean (SD): 1.58 (1.487)
[7]
  Change from Baseline in Stool Consistency, Difference from Placebo: 0.51
  Change from Baseline in Stool Consistency, LS Mean (SE): 1.53 (0.076)
  Change from Baseline in Stool Consistency, Mean (SD): 1.59 (1.492)
[8]
  Change from Baseline in Stool Consistency, Difference from Placebo: 0.63
  Change from Baseline in Stool Consistency, LS Mean (SE): 1.47 (0.059)
[9]
  Change from Baseline in Stool Consistency, Difference from Placebo: 0.63
  Change from Baseline in Stool Consistency, LS Mean (SE): 1.50 (0.061)
[10]
  Change from Baseline in Stool Consistency, Difference from Placebo: 0.64
  Change from Baseline in Stool Consistency, LS Mean (SE): 1.52 (0.061)
Active Combined, Post-Treatment Week 13, All Randomized (includes Duplicate Patients)
  Change from Baseline in Stool Consistency, Mean (SD): 1.15 (1.387)
Active Combined, Post-Treatment Week 13, ITT Population
  Change from Baseline in Stool Consistency, Mean (SD): 1.14 (1.392)
Active Combined, Post-Treatment Week 13, ITT Population-Excluding Duplicate Patients
  Change from Baseline in Stool Consistency, Mean (SD): 1.14 (1.397)
Active Combined, Post-Treatment Week 14, All Randomized (includes Duplicate Patients)
  Change from Baseline in Stool Consistency, Mean (SD): 1.12 (1.394)
Active Combined, Post-Treatment Week 14, ITT Population
  Change from Baseline in Stool Consistency, Mean (SD): 1.12 (1.379)
Active Combined, Post-Treatment Week 14, ITT Population-Excluding Duplicate Patients
  Change from Baseline in Stool Consistency, Mean (SD): 1.12 (1.384)
Active Combined, Week 1, All Randomized (includes Duplicate Patients)
  Change from Baseline in Stool Consistency, Mean (SD): 1.41 (1.482)
Active Combined, Week 1, ITT Population
  Change from Baseline in Stool Consistency, Mean (SD): 1.42 (1.490)
Active Combined, Week 1, ITT Population-Excluding Duplicate Patients
  Change from Baseline in Stool Consistency, Mean (SD): 1.43 (1.482)
Active Combined, Week 2, All Randomized (includes Duplicate Patients)
  Change from Baseline in Stool Consistency, Mean (SD): 1.41 (1.563)
Active Combined, Week 2, ITT Population
  Change from Baseline in Stool Consistency, Mean (SD): 1.42 (1.571)
Active Combined, Week 2, ITT Population-Excluding Duplicate Patients
  Change from Baseline in Stool Consistency, Mean (SD): 1.43 (1.570)
Active Combined, Week 3, All Randomized (includes Duplicate Patients)
  Change from Baseline in Stool Consistency, Mean (SD): 1.48 (1.526)
Active Combined, Week 3, ITT Population
  Change from Baseline in Stool Consistency, Mean (SD): 1.49 (1.527)
Active Combined, Week 3, ITT Population-Excluding Duplicate Patients
  Change from Baseline in Stool Consistency, Mean (SD): 1.49 (1.532)
Active Combined, Week 4, ITT Population
  Change from Baseline in Stool Consistency, Mean (SD): 1.48 (1.550)
Active Combined, Week 4, ITT Population-Excluding Duplicate Patients
  Change from Baseline in Stool Consistency, Mean (SD): 1.49 (1.557)
Active Combined, Week 5, ITT Population
  Change from Baseline in Stool Consistency, Mean (SD): 1.63 (1.530)
Active Combined, Week 5, ITT Population-Excluding Duplicate Patients
  Change from Baseline in Stool Consistency, Mean (SD): 1.64 (1.535)
Active Combined, Week 6, ITT Population
  Change from Baseline in Stool Consistency, Mean (SD): 1.62 (1.525)
Active Combined, Week 6, ITT Population-Excluding Duplicate Patients
  Change from Baseline in Stool Consistency, Mean (SD): 1.62 (1.524)
Active Combined, Week 7, ITT Population
  Change from Baseline in Stool Consistency, Mean (SD): 1.57 (1.494)
Active Combined, Week 7, ITT Population-Excluding Duplicate Patients
  Change from Baseline in Stool Consistency, Mean (SD): 1.58 (1.498)
Active Combined, Week 8, ITT Population
  Change from Baseline in Stool Consistency, Mean (SD): 1.62 (1.520)
Active Combined, Week 8, ITT Population-Excluding Duplicate Patients
  Change from Baseline in Stool Consistency, Mean (SD): 1.62 (1.523)
Active Combined, Week 9, ITT Population
  Change from Baseline in Stool Consistency, Mean (SD): 1.65 (1.487)
Active Combined, Week 9, ITT Population-Excluding Duplicate Patients
  Change from Baseline in Stool Consistency, Mean (SD): 1.65 (1.489)
Active Combined, Week 10, ITT Population
  Change from Baseline in Stool Consistency, Mean (SD): 1.62 (1.485)
Active Combined, Week 10, ITT Population-Excluding Duplicate Patients
  Change from Baseline in Stool Consistency, Mean (SD): 1.62 (1.491)
Active Combined, Week 11, ITT Population
  Change from Baseline in Stool Consistency, Mean (SD): 1.58 (1.547)
Active Combined, Week 11, ITT Population-Excluding Duplicate Patients
  Change from Baseline in Stool Consistency, Mean (SD): 1.59 (1.548)
Active Combined, Week 12, ITT Population
  Change from Baseline in Stool Consistency, Mean (SD): 1.64 (1.483)
Active Combined, Week 12, ITT Population-Excluding Duplicate Patients
  Change from Baseline in Stool Consistency, Mean (SD): 1.64 (1.484)
